Assays:
dermal fibroblasts = assay: Dermal fibroblast proliferation in vivo, BrdU/vimentin staining of skin sections; design: species or system mice; details: normal skin, 16 hours after peptide/MN treatment
Protocol: For animal study, BrdU was reconstituted in DMSO as stock (80 mM). 10 μl of BrdU stock mixed with 90 μl of PBS was intraperitoneally injected into mouse at 16 hours prior to euthanasia. Formalin-fixed, paraffin-embedded skin specimens were deparaffinized in xylene and rehydrated in a graded series of ethanol. The specimens were then exposed to 1 N HCl at room temperature for 1 hour for subsequent immunofluorescence study.
BrdU-labeled DNA was detected by polyclonal anti-BrdU antibody and rhodamine-conjugated donkey anti-rabbit IgG. Nuclei were counterstained with Hoechst 33258 (blue).
To investigate whether the transdermal delivery of the present PEDF peptides promotes the proliferation of dermal fibroblast in vivo, mice were intraperitoneally injected with BrdU and euthanized at 16 hours after the PEDF peptide/MN treatment or the vehicle/MN treatment. Skin sections were stained for vimentin (green) and BrdU (red). The level of BrdU- and vimentin-double positive cells was expressed as the percentage of BrdU- and vimentin-double positive cells per total vimentin-positive cells (the BrdU/Vimentin Labeling Index), and the results are summarized in Table 4.

MMP-1 = assay: UVB-induced MMP-1 protein expression in WS-1 cells, western blotting; assay type: cell-based, human; details: for MMP-1 Expression Level (%): Vehicle/UVB set to 100%; for MMP-1 protein level relative to vehicle/UVB group: pre-incubation with peptide
Protocol: Human skin fibroblast WS-1 cell line was obtained from Food Industry Research and Development Institute (Hsin-Chu, Taiwan). The WS-1 cells were maintained in a 37° C., 5% CO2 humidified incubator as monolayers in culture flasks. They were grown in 10% FBS-DMEM supplemented with 2 mM L-glutamine, 0.1 mM non-essential amino acids, 1% penicillin/streptomycin. For passage, near-confluent cells were sub-cultured by 0.25% trypsin/EDTA.
(§1) Skin tissues were homogenized in ice-cold lysis buffer containing 20 mM HEPES (pH 7.4), 150 mM NaCl, 1% SDS, 1 mM ethylenediamine tetraacetic acid (EDTA), 5 mM phenylmethanesulfonyl fluoride (PMSF), and 1 mM dithiothreitol (DTT), 1% Triton X-100, with freshly added protease inhibitor cocktail (Roche, Indianapolis, Ind.). Homogenates were then centrifuged at 12,000 g for 30 minutes at 4° C., and supernatants were then collected and stored at −70° C. Protein contents in lysates were determined using the Bradford assay. Whole cell lysates were prepared using the above lysis buffer. Aliquots of the lysates were then resolved on a SDS-PAGE and then electrotransferred to polyvinylidene difluoride (PVDF) membranes (Millipore, Bedford, Mass., USA) and processed for immunoblot analysis.
(§2) Antibodies used in the immunoblot study included anti-type I collagen 1A1 antibody (1:1000 dilution), anti-MMP-1 antibody (1:500 dilution) and anti-β-actin antibody (1:10000 dilution). Proteins of interest were detected using the appropriate IgG-HRP secondary antibody and ECL reagent (Amersham, Arlington Heights, Ill., USA). X-ray films were scanned on a Model GS-700 Imaging Densitometer (Bio-Rad Laboratories, Hercules, Calif.) and analyzed using Labworks 4.0 software. For quantification, blots from at least three independent experiments were used.
WS-1 were seeded on a six-well plate at a density of 1×10^5 cells per well and grown in the 10% FBS-DMEM growth medium for 24 hours and then incubated with 1% FBS-DMEM supplemented with or without 100 nM PEDF peptide for further 24 hours. The cells were washed twice with phosphate buffered saline (PBS) and exposed to UVB radiation covered with PBS. The UVB treatment was conducted in a cell culture hood by using a UVB lamp (model XL-1000B, Spectrolinker™ Inc.) at a final dose of 15 mJ/cm^2 for about 100 seconds. Cell viability was assayed using trapan blue exclusion assay (>95%). After UVB irradiation, PBS was replaced with 1% FBS-DMEM with or without PEDF peptide for further 48 hours and then protein extracts were assayed by western blotting for the expression of MMP-1 protein. Cells that were not subjected to UVB irradiation were used as control (normal). The expression level of MMP-1 was normalized with the expression level in the Vehicle/UVB group (set to 100%), and quantitative results are summarized in Table 6.

UVB-induced wrinkles = UVB-induced wrinkles in nude mice, appearance photographed; assay type: in vivo; details: 8-week UVB, then ointment plus microneedle twice a week for 2 weeks; FIG. 4
Text: Six-week-old female nude mice (BALB/cAnN.Cg-Foxn1nu/CrlNarl) were irradiated with ultraviolet B (UVB) on the back 5 times a week for an eight-week period using a bank of five UVB lamps (model XL-1000B, Spectrolinker™ apparatus; emission peak: 312 nm), placed about 20 cm above the backs of the animals. During the UVB exposure, the mice were allowed to move freely within the cage. The irradiation intensity represented as the minimal erythe al dose (MED) was set at 1 MED during the first 2 weeks (60 mJ/cm^2), and was progressively elevated to 2 MED (120 mJ/cm^2) in the 3rd-4th week, to 3 MED (180 mJ/cm^2) in the 5th-6th week, and to 4 MED (240 mJ/cm^2) during the 7th-8th weeks of the experiment. After the 8-week UVB exposure, animals developed noticeable wrinkles and were subsequently randomly divided into the following 4 groups, with 3 mice in each group. In the UVB/vehicle, UVB/29-mer, UVB/20-mer, and UVB/18-mer groups, 350 μl of ointment (containing DMSO, 29-mer, 20-mer or 18-mer PEDF) was applied to the dorsal skin and then transdermal delivery was achieved by punching the ointment treated skin with the microneedle patch. Also, mice that were not subjected to UVB radiation were used as control (Normal). The ointment/microneedle treatment was given twice a week for 2 weeks. Mice were intraperitoneally given BrdU and euthanized at 16 hours after the last treatment. Skin sections were stained for vimentin and BrdU. The level of BrdU- and vimentin-double positive cells was expressed as the percentage of BrdU- and vimentin-double positive cells per total vimentin-positive cells (the BrdU/Vimentin Labeling Index).
Formation of wrinkles is closely related to repetitive exposure to UVB irradiation. […] In this working example, we investigated the anti-wrinkle effect of present PEDF peptides in nude (i.e, hairless) mice. Wrinkles were induced by an eight-week UVB irradiation according to the procedure set forth in Example 3.3 above. […]

type I collagen (COL1A1) = assay: COL1A1 level in UVB-damaged mouse skin by immunoblot; assay type: in vivo, nude mice; details: 8-week UVB, then ointment plus microneedle for 2 weeks; untreated normal group set to 100%
Protocol: as §1, §2
Six-week-old female nude mice (BALB/cAnN.Cg-Foxn1nu/CrlNarl) were irradiated with ultraviolet B (UVB) on the back 5 times a week for an eight-week period using a bank of five UVB lamps (model XL-1000B, Spectrolinker™ apparatus; emission peak: 312 nm), placed about 20 cm above the backs of the animals. During the UVB exposure, the mice were allowed to move freely within the cage. […] The level of BrdU- and vimentin-double positive cells was expressed as the percentage of BrdU- and vimentin-double positive cells per total vimentin-positive cells (the BrdU/Vimentin Labeling Index). […]

[1] = 100 nM peptide 24 h before and 48 h after UVB 15 mJ/cm^2

Row | Substance | BrdU/Vimentin Labeling Index (%) (dermal fibroblasts) | MMP-1 Expression Level (%) (MMP-1; [1]) | MMP-1 Expression Level (%) (MMP-1; 100 nM peptide, no UVB irradiation) | MMP-1 protein level relative to vehicle/UVB group (MMP-1) | wrinkle appearance after 2-week treatment (UVB-induced wrinkles) | COL1A1 Level (%) (type I collagen (COL1A1))
1 | Ac-SLGAEQRTESIIHRALYYDLISSPDIHGT-NH2 [29-mer] | 16.9 ± 1.9 | 42 ± 3.3 | 5 ± 2.3 | about half | wrinkle lines were fewer and finer | 91.0 ± 5.0
2 | EQRTESIIHRALYYDLIS [18-mer] | – | – | – | – | not capable of reducing the wrinkles | 45.0 ± 3.8
3 | SLGAEQRTESIIHRALYYDL [20-mer, synthetic peptide corresponding to residues 93-112 of human PEDF] | 17.3 ± 3.2 | 50 ± 5.1 | – | about half | wrinkle lines were fewer and finer | 92.3 ± 9.1
